For series [1], the system named is cisplatin-induced lung tumors. In words: Experiment 2: celecoxib with EGCG or polyphenon E on cisplatin-induced lung tumor incidence and multiplicity. Particulars: 0.1% EGCG or 0.17% polyphenon E in drinking water where combined; for INCIDENCE: killed at 26 weeks, CDDP control 95%. The series is classed as in vivo, female A/J mice.
The nature of series [2]: Experiment 2: cisplatin-induced weight loss. Particulars: low-dose celecoxib; p<0.05.
Experimental: In this study, female A/J mice (4 weeks old) were divided into seven groups: group 1, no treatment; group 2, low-dose celecoxib (150 mg/kg diet); group 3, high-dose celecoxib (1500 mg/kg diet); group 4, 0.1% EGCG+low-dose celecoxib treatment (150 mg/kg diet); group 5, 0.1% EGCG+high-dose celecoxib (1500 mg/kg diet); group 6, 0.17% polyphenon E+low-dose celecoxib (150 mg/kg diet); group 7, 0.17% polyphenon E+high-dose celecoxib (1500 mg/kg diet). All mice were treated with cisplatin (1.62 mg/kg of body weight, i.p.) once a week for 10 weeks from 7 to 16 weeks of age. Mice in groups 2, 3, 4, 5, 6, and 7 were exclusively fed experimental diet prepared by mixing celecoxib. EGCG and polyphenon E were provided in drinking water. Seven groups of mice were killed at 26 weeks after treatment.
The subject of series [3] is cisplatin-induced lung tumors. In words: Experiment 1: Celecoxib with EGCg or Polyphenon E on cisplatin-induced lung tumor incidence and multiplicity. Particulars: for INCIDENCE: CDDP control 0.9; for MULTIPLICITY: CDDP control 2.2. In kind it is in vivo, A/J mice.
Experimental: Similarly, CDDP+Cox (number)+Polyphenon E refers to animals treated with Cisplatin, Polyphenon E, and Celecoxib. Each group of animals had 10 mice.
As control, A/J mice were treated with CDDP using standard protocols well known in the art and as further described below.
Treatment with EGCg alone (see below) was performed in the animals of group 2. […] Low-dose and high-dose effects of Celecoxib were tested in groups 3 and 4 in which the COX-2 inhibitor was mixed with the diet at a concentration of either 150 ppm or 1,500 ppm as indicated by the numbers in parentheses (see below).
The effect of EGCg in combination with high- and low-dose COX-2 inhibitor was tested in groups 5 and 6 (see below). […] For these experiments, EGCg was dissolved in drinking water at 0.1% (wt/vol) concentration.
The effect of Polyphenon E in combination with high- and low-dose COX-2 inhibitor was tested in groups 7 and 8 (see below). […] For these experiments, Polyphenon E was dissolved in drinking water at 0.17% concentration.
In series [4] the test system is cisplatin-induced lung tumors. The conditions noted are these: administered as individual compounds; Carcinogenesis 21(5):915, 2000; Proc AACR 44 #4920; cited from earlier work.
The mark [5] stands for this setting: celecoxib 150 ppm in diet (low dose), EGCg 0.1% or Polyphenon E 0.17% in drinking water where combined.
Where [6] appears, read: celecoxib 1,500 ppm in diet (high dose), EGCg 0.1% or Polyphenon E 0.17% in drinking water where combined.
Where [7] appears, read: EGCg 0.1% (wt/vol) in drinking water, no celecoxib.

Several values for one entry are separate records, joined by “and”; a condition that tells them apart may be missing. Equal values may be shown once.

In the case of `Cc1ccc(-c2cc(C(F)(F)F)nn2-c2ccc(S(N)(=O)=O)cc2)cc1` [Cox, celecoxib], the “MULTIPLICITY (number of tumors/mouse, mean±SD in text)” value in series [1] (high-dose celecoxib 1500 mg/kg diet, CDDP control 2.2) is 1.7 tumors/mouse; in series [1] (high-dose celecoxib 1500 mg/kg diet, CDDP control 2.2, listed as Celecoxib) it was 1.7±1.2 tumors/mouse; in series [1] (low-dose celecoxib 150 mg/kg diet, CDDP control 2.2), 2.1 tumors/mouse; in series [1] (low-dose celecoxib 150 mg/kg diet, CDDP control 2.2, listed as Celecoxib), 2.1±1.3 tumors/mouse. For the same compound, the INCIDENCE in series [1] (high-dose celecoxib 1500 mg/kg diet) is recorded as 85.7%; in series [1] (high-dose celecoxib 1500 mg/kg diet, listed as Celecoxib), 85.7%; in series [1] (low-dose celecoxib 150 mg/kg diet), 95%; in series [1] (low-dose celecoxib 150 mg/kg diet, listed as Celecoxib), 95%; in series [3] (setting [5]), 0.9; in series [3] (setting [6]), 0.91. For the same compound, the “cisplatin-induced weight loss (in words)” value in series [2] is recorded as “significantly prevented”. In addition, the MULTIPLICITY in series [3] (setting [5]) was 2.1; in series [3] (setting [6]) it was 1.91.
Take (−)-epigallocatechin gallate [EGCg]: in series [4], the “inhibition of cisplatin-induced lung tumors (in words)” value was “partially inhibits”. In series [3] (setting [7]), this compound registered an INCIDENCE of 0.8 and an MULTIPLICITY of 1.2. In series [3] (EGCg alone), the “effect on tumor incidence (in words)” value is recorded as “could not significantly reduce tumor incidence”; the “reduction of tumor multiplicity versus control” value was 45% and ~50%. The “mice that developed tumors (tumor incidence)” value in series [3] (EGCg alone, control 90%) stood at 80%.
